According to patent publication US20040185460A1, “Novel mixed lineage kinase (7) (mlk7) polypeptide polynucleotides encoding the same and methods of use thereof” (priority 2001, published 2004):

Tested on: baculoviral human GST-MLK7KD and GST-MLK7KD/LZ
Details: data not shown; shows requirement for metal ions (Mg+2)

O=C(O)CN(CCN(CC(=O)O)CC(=O)O)CC(=O)O [EDTA]
activities of GST-MLK7KD and GST-MLK7KD/LZ: inhibited
